Results as given in PubChem BioAssay AID1963975 (Molecular Pharmacology Branch, DTP, NCI, 2024).

Tested on: 624824-186-R-J2-PDC multicell spheroids, viability
Assay: Anticancer human tumor 624824-186-R-J2-PDC patient-derived colon adenocarcinoma cell line growth inhibition [PI3K]
Details: for IC50: curve of first compound; for viability, T/C: stronger effect = lower value
Text: Combinatorial screen of targeted agents with the PI3K inhibitors inavolisib, alpelisib, duvelisib, and copanlisib in multi-cell type tumor spheroids
A high-throughput screen of multi-cell type tumor spheroids was designed to identify active combinations of targeted small molecules and PI3K pathway inhibitors. Complex spheroids include a stromal component modeled by human endothelial cells (HUVEC) and fibroblasts modeled by human mesenchymal stem cells (MSCs). The concentration ranges selected for each drug and investigational agent were based upon clinically achievable concentrations if the clinical Cmax of the agent was known.
Compounds. The drugs and investigational agents: inavolisib (NSC800729), alpelisib (NSC765974), duvelisib (NSC772469), copanlisib (NSC816437), ipatasertib (NSC767898), afuresertib (NSC778305), talazoparib (NSC767125), sapanisertib (NSC764658), selumetinib (NSC741078), tovorafenib (DAY101, NSC766906), vemurafenib (NSC761431), ravoxertinib (NSC781343), sotorasib (NSC818433), MRTX1133 (NSC 836407), abemaciclib (NSC 768073), palbociclib (NSC758247), venetoclax (NSC 766270), SY5609 (NSC837396), enzalutamide (NSC755605), and darolutamide (NSC825331), were obtained from the National Cancer Institute (NCI) Developmental Therapeutics Program Chemical Repository. The FDA-approved anticancer drug set is available from the NCI Developmental Therapeutics Program. […] The stock solutions were prepared in dimethyl sulfoxide (DMSO, Sigma-Aldrich, St. Louis, MO, cat. D2650) at 800-fold the tested concentration and stored at -70 degrees C prior to their use. All drugs and investigational agents were tested over a range starting from a high concentration at or near the clinical Cmax and decreasing in half-log increments. If the clinical Cmax for an agent had not been determined, the highest concentration tested was 10 microM.
Cell Culture. All cells were maintained in an incubator at 37 degrees C and 5% CO2 with 95% humidity. The PDC lines were cultured according to standard operating procedures established by the NCI PDMR (https://pdmr.cancer.gov/sops/default.htm). All PDCs were thawed and cultured in Matrigel-coated flasks prepared with a working solution of 1X Ham's F-12 nutrient mix, without supplementation (Invitrogen, Waltham, MA, cat. 11765054), 100 U/mL penicillin-streptomycin (Invitrogen, cat. 15140122), and 2.5% Matrigel (Corning Inc., Corning, NY, cat. 354248) for the first three passages. The 354836-022-R-J1-PDC, 475296-252-R-J1-PDC, and 997726-040-R-J2-PDC lines were cultured in 6A media, which includes advanced DMEM/F-12 (Thermo Fisher Scientific, cat. 12634028), 10 mM HEPES (Thermo Fisher Scientific, cat. 15630080), 1X GlutaMAX supplement (Thermo Fisher Scientific, cat. 35050061), 0.1 mg/mL primocin (InvivoGen, San Diego, CA, cat. ant-pm-2), 10% defined fetal bovine serum, heat inactivated (HyClone Laboratories Inc., Logan, UT, cat. SH30070.03HI), 50% L-WRN conditioned media (ATCC, cat. CRL-3276), 1.25 mM N-Acetyl-L-cysteine (Sigma-Aldrich, cat. A9165), 10 mM nicotinamide (Sigma-Aldrich, cat. N0636), 1X B-27 supplement (Thermo Fisher Scientific, cat. 17504044), 1X N-2 supplement (Thermo Fisher Scientific, cat. 17502048), and 10 microM Y-27632 dihydrochloride (Tocris Bioscience, Bristol, United Kingdom, cat. 1254). The 624824-186-R-J2-PDC line was cultured in 6C/Colon 1B media, which includes all 6A media components plus 50 ng/mL human EGF recombinant protein (Thermo Fisher Scientific, cat. PHG0311). […]
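Note: spheroids exposed to agents for 7 days before viability read.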
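Throughout, for viability, T/C: 100% = DMSO vehicle treated spheroids.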

For `CNC(=O)c1ccc(N2C(=S)N(c3ccc(C#N)c(C(F)(F)F)c3)C(=O)C2(C)C)cc1F` + CC(Nc1ccc2c(c1)OCCn1cc(N3C(=O)OCC3C(F)F)nc1-2)C(N)=O, which IC50 (second compound 0.00316 µM) is on record?
The IC50 was greater than 10 µM.

And the IC50 (second compound 0.01 µM)?
The IC50 was greater than 10 µM.

What about the IC50 (second compound 0.0316 µM) of the same molecule?
Its IC50 is greater than 10 µM.

What about the IC50 (second compound 0.1 µM) of the same molecule?
The IC50 was greater than 10 µM.

And the IC50 (second compound 0.316 µM)?
The IC50 was greater than 10 µM.

What about the IC50 (second compound 1 µM) of the same molecule?
Its IC50 is greater than 10 µM.

And the viability, T/C (second compound 0.00316 µM, first compound 0.0316 µM)?
The viability, T/C was 90.2%.

What about the viability, T/C (second compound 0.00316 µM, first compound 0.1 µM) of the same molecule?
The viability, T/C was 90.7%.

And the viability, T/C (second compound 0.00316 µM, first compound 0.316 µM)?
The viability, T/C was 107%.

What about the viability, T/C (second compound 0.00316 µM, first compound 1 µM) of the same molecule?
The viability, T/C was 96.3%.

And the viability, T/C (second compound 0.00316 µM, first compound 3.16 µM)?
Its viability, T/C is 134%.

What about the viability, T/C (second compound 0.00316 µM, first compound 10 µM) of the same molecule?
Its viability, T/C is 121%.

And the viability, T/C (second compound 0.01 µM, first compound 0.0316 µM)?
Its viability, T/C is 88.3%.

What about the viability, T/C (second compound 0.01 µM, first compound 0.1 µM) of the same molecule?
Its viability, T/C is 107%.

What about the viability, T/C (second compound 0.01 µM, first compound 0.316 µM) of the same molecule?
The viability, T/C was 88.5%.

And the viability, T/C (second compound 0.01 µM, first compound 1 µM)?
The viability, T/C was 86.4%.

And the viability, T/C (second compound 0.01 µM, first compound 3.16 µM)?
Its viability, T/C is 124%.

What about the viability, T/C (second compound 0.01 µM, first compound 10 µM) of the same molecule?
The viability, T/C was 109%.

And the viability, T/C (second compound 0.0316 µM, first compound 0.0316 µM)?
Its viability, T/C is 75.5%.

And the viability, T/C (second compound 0.0316 µM, first compound 0.1 µM)?
Its viability, T/C is 77.3%.

And the viability, T/C (second compound 0.0316 µM, first compound 0.316 µM)?
The viability, T/C was 89.5%.

And the viability, T/C (second compound 0.0316 µM, first compound 1 µM)?
Its viability, T/C is 80.5%.

And the viability, T/C (second compound 0.0316 µM, first compound 3.16 µM)?
The viability, T/C was 102%.

What about the viability, T/C (second compound 0.0316 µM, first compound 10 µM) of the same molecule?
The viability, T/C was 98.3%.

And the viability, T/C (second compound 0.1 µM, first compound 0.0316 µM)?
Its viability, T/C is 72.3%.

What about the viability, T/C (second compound 0.1 µM, first compound 0.1 µM) of the same molecule?
Its viability, T/C is 66%.

And the viability, T/C (second compound 0.1 µM, first compound 0.316 µM)?
Its viability, T/C is 84.8%.

And the viability, T/C (second compound 0.1 µM, first compound 1 µM)?
The viability, T/C was 67.8%.

What about the viability, T/C (second compound 0.1 µM, first compound 3.16 µM) of the same molecule?
Its viability, T/C is 78%.

What about the viability, T/C (second compound 0.1 µM, first compound 10 µM) of the same molecule?
Its viability, T/C is 102%.

What about the viability, T/C (second compound 0.316 µM, first compound 0.0316 µM) of the same molecule?
Its viability, T/C is 78%.

What about the viability, T/C (second compound 0.316 µM, first compound 0.1 µM) of the same molecule?
The viability, T/C was 72.3%.

What about the viability, T/C (second compound 0.316 µM, first compound 0.316 µM) of the same molecule?
The viability, T/C was 88.5%.

And the viability, T/C (second compound 0.316 µM, first compound 1 µM)?
The viability, T/C was 76.9%.

And the viability, T/C (second compound 0.316 µM, first compound 3.16 µM)?
The viability, T/C was 104%.

What about the viability, T/C (second compound 0.316 µM, first compound 10 µM) of the same molecule?
The viability, T/C was 98.7%.

And the viability, T/C (second compound 1 µM, first compound 0.0316 µM)?
The viability, T/C was 69%.

And the viability, T/C (second compound 1 µM, first compound 0.1 µM)?
Its viability, T/C is 78%.

What about the viability, T/C (second compound 1 µM, first compound 0.316 µM) of the same molecule?
Its viability, T/C is 89.3%.

What about the viability, T/C (second compound 1 µM, first compound 1 µM) of the same molecule?
The viability, T/C was 87.5%.

And the viability, T/C (second compound 1 µM, first compound 3.16 µM)?
Its viability, T/C is 95.2%.

What about the viability, T/C (second compound 1 µM, first compound 10 µM) of the same molecule?
The viability, T/C was 93.7%.

Which results are given for `Cn1cnc2c(F)c(Nc3ccc(Br)cc3Cl)c(C(=O)NOCCO)cc21` + CC(Nc1ccc2c(c1)OCCn1cc(N3C(=O)OCC3C(F)F)nc1-2)C(N)=O?
IC50 (second compound 0.00316 µM): > 3 µM; IC50 (second compound 0.01 µM): > 3 µM; IC50 (second compound 0.0316 µM): > 3 µM; IC50 (second compound 0.1 µM): > 3 µM; IC50 (second compound 0.316 µM): 2.93 µM; IC50 (second compound 1 µM): 0.669 µM; viability, T/C (second compound 0.00316 µM, first compound 0.00949 µM): 89.3%; viability, T/C (second compound 0.00316 µM, first compound 0.03 µM): 76.8%; viability, T/C (second compound 0.00316 µM, first compound 0.0949 µM): 76%; viability, T/C (second compound 0.00316 µM, first compound 0.3 µM): 74.8%; viability, T/C (second compound 0.00316 µM, first compound 0.949 µM): 87.8%; viability, T/C (second compound 0.00316 µM, first compound 3 µM): 78.7%; viability, T/C (second compound 0.01 µM, first compound 0.00949 µM): 87.2%; viability, T/C (second compound 0.01 µM, first compound 0.03 µM): 71.2%; viability, T/C (second compound 0.01 µM, first compound 0.0949 µM): 81.9%; viability, T/C (second compound 0.01 µM, first compound 0.3 µM): 70.9%; viability, T/C (second compound 0.01 µM, first compound 0.949 µM): 89.6%; viability, T/C (second compound 0.01 µM, first compound 3 µM): 81.8%; viability, T/C (second compound 0.0316 µM, first compound 0.00949 µM): 72.1%; viability, T/C (second compound 0.0316 µM, first compound 0.03 µM): 66.2%; viability, T/C (second compound 0.0316 µM, first compound 0.0949 µM): 75.7%; viability, T/C (second compound 0.0316 µM, first compound 0.3 µM): 77.4%; viability, T/C (second compound 0.0316 µM, first compound 0.949 µM): 85.8%; viability, T/C (second compound 0.0316 µM, first compound 3 µM): 67.1%; viability, T/C (second compound 0.1 µM, first compound 0.00949 µM): 83.3%; viability, T/C (second compound 0.1 µM, first compound 0.03 µM): 68.2%; viability, T/C (second compound 0.1 µM, first compound 0.0949 µM): 61.1%; viability, T/C (second compound 0.1 µM, first compound 0.3 µM): 84.2%; viability, T/C (second compound 0.1 µM, first compound 0.949 µM): 67.9%; viability, T/C (second compound 0.1 µM, first compound 3 µM): 78.8%; viability, T/C (second compound 0.316 µM, first compound 0.00949 µM): 102%; viability, T/C (second compound 0.316 µM, first compound 0.03 µM): 68.1%; viability, T/C (second compound 0.316 µM, first compound 0.0949 µM): 74%; viability, T/C (second compound 0.316 µM, first compound 0.3 µM): 68.6%; viability, T/C (second compound 0.316 µM, first compound 0.949 µM): 60.2%; viability, T/C (second compound 0.316 µM, first compound 3 µM): 50.1%; viability, T/C (second compound 1 µM, first compound 0.00949 µM): 68.2%; viability, T/C (second compound 1 µM, first compound 0.03 µM): 68.8%; viability, T/C (second compound 1 µM, first compound 0.0949 µM): 66.3%; viability, T/C (second compound 1 µM, first compound 0.3 µM): 59.1%; viability, T/C (second compound 1 µM, first compound 0.949 µM): 46%; viability, T/C (second compound 1 µM, first compound 3 µM): 29.5%
